Measurements reported in paper PMC9103758 (International Journal of Molecular Sciences, 2022).
“And” between values parts separate entries of the source, which are not always exact repeats. Identical values can stand only once. Like-named read-outs stand apart in the source and are kept apart here.

Key:
VRAC [1] = molecular target: T1, VRAC (Homo sapiens, UniProt Q8IWT6); assay: cell-based; details: VRAC IC50, YFP fluorescence quenching, LN215 cells, hypotonic solution 5 min, n = 4
T1 sequence (Q8IWT6 1-810): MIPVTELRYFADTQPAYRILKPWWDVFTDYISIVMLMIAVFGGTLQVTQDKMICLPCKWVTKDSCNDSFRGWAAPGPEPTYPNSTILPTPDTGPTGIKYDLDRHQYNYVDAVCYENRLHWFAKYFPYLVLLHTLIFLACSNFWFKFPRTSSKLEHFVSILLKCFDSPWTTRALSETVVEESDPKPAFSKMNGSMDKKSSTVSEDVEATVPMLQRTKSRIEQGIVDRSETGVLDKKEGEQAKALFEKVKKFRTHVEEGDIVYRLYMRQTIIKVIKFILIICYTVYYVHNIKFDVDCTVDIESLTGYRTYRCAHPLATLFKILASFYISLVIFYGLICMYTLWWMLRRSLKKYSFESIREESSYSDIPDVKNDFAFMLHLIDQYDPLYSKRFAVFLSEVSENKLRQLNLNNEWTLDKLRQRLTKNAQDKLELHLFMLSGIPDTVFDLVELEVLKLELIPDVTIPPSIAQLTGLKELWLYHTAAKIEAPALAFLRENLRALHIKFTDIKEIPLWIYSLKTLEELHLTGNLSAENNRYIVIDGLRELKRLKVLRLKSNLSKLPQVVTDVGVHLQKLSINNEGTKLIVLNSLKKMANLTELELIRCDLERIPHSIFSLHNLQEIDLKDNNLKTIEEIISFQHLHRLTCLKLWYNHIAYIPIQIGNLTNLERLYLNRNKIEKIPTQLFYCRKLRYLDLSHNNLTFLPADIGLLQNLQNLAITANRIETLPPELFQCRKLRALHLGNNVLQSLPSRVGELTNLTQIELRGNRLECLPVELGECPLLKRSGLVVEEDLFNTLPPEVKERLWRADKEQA

ANO1 = molecular target: T2, ANO1 (Homo sapiens, UniProt Q5XXA6, DEL476-501); assay: YFP fluorescence quenching assay for ANO1 activity in FRT-ANO1 cells; format: cell-based; details: ATP 100 μM, n = 4
T2 construct: expressed in transfected cells; host or cells: Fisher rat thyroid (FRT) cells; The YFP assay uses FRT-ANO1-YFP cells, which also carry the halide sensor
T2 sequence (Q5XXA6 with tags, fused parts or gaps isoform Q5XXA6-5 DEL539-564): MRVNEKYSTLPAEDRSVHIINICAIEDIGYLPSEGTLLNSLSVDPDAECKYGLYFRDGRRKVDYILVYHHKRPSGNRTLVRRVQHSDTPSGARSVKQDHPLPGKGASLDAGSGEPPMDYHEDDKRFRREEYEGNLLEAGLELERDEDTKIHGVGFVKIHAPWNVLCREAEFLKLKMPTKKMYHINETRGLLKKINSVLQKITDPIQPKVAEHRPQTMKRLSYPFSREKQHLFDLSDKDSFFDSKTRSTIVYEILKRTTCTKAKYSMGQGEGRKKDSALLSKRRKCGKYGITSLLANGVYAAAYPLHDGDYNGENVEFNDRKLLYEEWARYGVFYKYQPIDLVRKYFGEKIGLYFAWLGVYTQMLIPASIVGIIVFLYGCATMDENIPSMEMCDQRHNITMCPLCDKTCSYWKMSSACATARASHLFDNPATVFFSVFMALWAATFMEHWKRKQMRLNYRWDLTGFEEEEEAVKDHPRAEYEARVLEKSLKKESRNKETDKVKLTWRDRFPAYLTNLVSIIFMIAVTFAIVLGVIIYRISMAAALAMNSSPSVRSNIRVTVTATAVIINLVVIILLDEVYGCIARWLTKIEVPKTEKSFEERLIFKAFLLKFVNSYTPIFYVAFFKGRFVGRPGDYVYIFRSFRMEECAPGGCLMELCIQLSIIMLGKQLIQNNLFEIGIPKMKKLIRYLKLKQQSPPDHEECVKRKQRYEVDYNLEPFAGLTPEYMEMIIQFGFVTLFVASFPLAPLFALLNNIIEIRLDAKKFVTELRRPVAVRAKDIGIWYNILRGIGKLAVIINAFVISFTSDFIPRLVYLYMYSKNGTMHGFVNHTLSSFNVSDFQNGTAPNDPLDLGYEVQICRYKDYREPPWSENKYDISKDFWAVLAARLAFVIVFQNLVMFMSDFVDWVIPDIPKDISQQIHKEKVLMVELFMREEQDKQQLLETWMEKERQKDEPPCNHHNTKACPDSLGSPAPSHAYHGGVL
Method: Figure 2 Inhibitory effects of VI-101, VI-201 and VI-301 on VRAC and ANO1. (A–C) Representative YFP fluorescence traces for VRAC activity. LN215 cells were treated with the indicated concentrations of VI-101, VI-201 and VI-301 with hypotonic solution for 5 min. (D) Dose-response curve of VRAC inhibition (mean ± S.E., n = 4). (E–G) Representative YFP fluorescence traces for ANO1 activity. […]. (H) Dose-response curve of ANO1 inhibition (mean ± S.E., n = 4).
Human ANO1(abc) expressing Fisher rat thyroid (FRT) cells, ANO2 expressing FRT cells, and human CFTR expressing FRT cells were cultured as described in a previous study. LN215 cells were stably transfected with the halide sensor YFP-F46L/H148Q/I152 and NIH-3T3 cells cultured in DMEM were supplemented with 10% FBS, 2 mM L-glutamine, 100 units/mL penicillin, and 100 μg/mL streptomycin. HEK293T cells were stably transfected with the human Kv11.1 (hERG) and cultured in DMEM supplemented with 10% FBS, 2 mM L-glutamine, 100 units/mL penicillin, and 100 μg/mL streptomycin. PC3, HT29, and HeLa cells were stably transfected with the halide sensor YFP-F46L/H148Q/I152 and cultured in RPMI 1640 supplemented with 10% FBS, 2 mM L-glutamine, 100 units/mL penicillin, and 100 μg/mL streptomycin. […]

human CFTR = molecular target: T3, human CFTR (Homo sapiens, UniProt P13569); assay: Apical membrane current of CFTR in FRT cells expressing human CFTR; format: cell-based; details: 20 μM
T3 construct: expressed in transfected cells; host or cells: Fisher rat thyroid (FRT) cells
Excerpt: […]. (C) Summary of dose-response (mean ± S.E., n = 5). […]. (F) Summary of dose−response (mean ± S.E., n = 6).
Snapwell inserts containing ANO1(abc) or CFTR-expressing FRT cells were mounted in Ussing chambers (Physiological Instruments, San Diego, CA). The basolateral hemichamber was filled with buffer solution (in mM): 120 NaCl, 5 KCl, 1 MgCl2, 1 CaCl2, 10 D-glucose, 2.5 HEPES, and 25 NaHCO3 (pH 7.4). The apical hemichamber was filled with buffer solution (in mM): 60 NaCl, 60 Na-gluconate, 5 KCl, 1 MgCl2, 1 CaCl2, 10 D-glucose, 2.5 HEPES, and 25 NaHCO3 (pH 7.4). FRT cells were bathed for a 10 min stabilization period and gassed with 5% CO2 and 95% O2 at 37 °C. The apical membrane current was recorded with an EVC4000 Multi-Channel V/I Clamp (World Precision Instruments, Sarasota, FL, USA) and a PowerLab 4/35 (AD Instruments, Castle Hill, Australia).

human ANO2 = molecular target: T4, human ANO2 (Homo sapiens, UniProt Q9NQ90); assay: YFP fluorescence quenching assay in FRT cells expressing human ANO2; format: cell-based; details: 30 μM, ANO2 activated by 100 μM ATP
T4 construct: expressed in transfected cells; host or cells: Fisher rat thyroid (FRT) cells
T4 sequence (Q9NQ90 1-998): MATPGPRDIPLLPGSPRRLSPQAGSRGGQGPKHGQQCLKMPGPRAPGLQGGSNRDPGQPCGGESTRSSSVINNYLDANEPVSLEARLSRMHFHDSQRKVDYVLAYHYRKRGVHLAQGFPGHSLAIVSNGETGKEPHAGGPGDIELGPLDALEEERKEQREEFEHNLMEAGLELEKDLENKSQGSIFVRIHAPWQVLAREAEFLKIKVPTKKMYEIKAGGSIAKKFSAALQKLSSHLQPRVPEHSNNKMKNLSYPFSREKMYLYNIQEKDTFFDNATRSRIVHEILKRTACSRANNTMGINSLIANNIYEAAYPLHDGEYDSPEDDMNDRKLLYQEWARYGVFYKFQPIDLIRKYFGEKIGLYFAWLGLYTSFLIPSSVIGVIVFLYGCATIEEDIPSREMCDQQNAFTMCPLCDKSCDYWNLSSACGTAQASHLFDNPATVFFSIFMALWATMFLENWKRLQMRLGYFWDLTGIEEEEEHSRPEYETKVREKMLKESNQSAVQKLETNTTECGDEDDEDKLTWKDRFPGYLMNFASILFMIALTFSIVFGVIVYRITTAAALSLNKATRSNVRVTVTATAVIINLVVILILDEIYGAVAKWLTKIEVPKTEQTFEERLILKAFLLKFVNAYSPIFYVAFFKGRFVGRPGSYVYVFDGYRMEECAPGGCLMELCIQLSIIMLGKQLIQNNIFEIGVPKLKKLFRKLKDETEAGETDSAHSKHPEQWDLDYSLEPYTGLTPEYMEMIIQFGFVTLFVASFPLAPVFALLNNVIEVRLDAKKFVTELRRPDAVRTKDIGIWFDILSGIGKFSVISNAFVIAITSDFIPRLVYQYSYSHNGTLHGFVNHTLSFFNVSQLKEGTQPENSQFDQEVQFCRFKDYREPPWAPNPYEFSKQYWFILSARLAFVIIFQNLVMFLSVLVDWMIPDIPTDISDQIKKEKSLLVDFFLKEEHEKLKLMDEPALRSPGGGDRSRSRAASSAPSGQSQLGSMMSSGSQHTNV
Method: ANO2 activity was measured using YFP fluorescence quenching assay in FRT cells expressing human ANO2.
(D) Representative YFP fluorescence traces in FRT cells expressing human ANO2.

VRAC [2] = molecular target: T1, VRAC; details: read-out: VRAC IC50; YFP fluorescence quenching, LN215 cells, hypotonic solution 5 min, n = 4

T3 sequence (P13569 whole entry): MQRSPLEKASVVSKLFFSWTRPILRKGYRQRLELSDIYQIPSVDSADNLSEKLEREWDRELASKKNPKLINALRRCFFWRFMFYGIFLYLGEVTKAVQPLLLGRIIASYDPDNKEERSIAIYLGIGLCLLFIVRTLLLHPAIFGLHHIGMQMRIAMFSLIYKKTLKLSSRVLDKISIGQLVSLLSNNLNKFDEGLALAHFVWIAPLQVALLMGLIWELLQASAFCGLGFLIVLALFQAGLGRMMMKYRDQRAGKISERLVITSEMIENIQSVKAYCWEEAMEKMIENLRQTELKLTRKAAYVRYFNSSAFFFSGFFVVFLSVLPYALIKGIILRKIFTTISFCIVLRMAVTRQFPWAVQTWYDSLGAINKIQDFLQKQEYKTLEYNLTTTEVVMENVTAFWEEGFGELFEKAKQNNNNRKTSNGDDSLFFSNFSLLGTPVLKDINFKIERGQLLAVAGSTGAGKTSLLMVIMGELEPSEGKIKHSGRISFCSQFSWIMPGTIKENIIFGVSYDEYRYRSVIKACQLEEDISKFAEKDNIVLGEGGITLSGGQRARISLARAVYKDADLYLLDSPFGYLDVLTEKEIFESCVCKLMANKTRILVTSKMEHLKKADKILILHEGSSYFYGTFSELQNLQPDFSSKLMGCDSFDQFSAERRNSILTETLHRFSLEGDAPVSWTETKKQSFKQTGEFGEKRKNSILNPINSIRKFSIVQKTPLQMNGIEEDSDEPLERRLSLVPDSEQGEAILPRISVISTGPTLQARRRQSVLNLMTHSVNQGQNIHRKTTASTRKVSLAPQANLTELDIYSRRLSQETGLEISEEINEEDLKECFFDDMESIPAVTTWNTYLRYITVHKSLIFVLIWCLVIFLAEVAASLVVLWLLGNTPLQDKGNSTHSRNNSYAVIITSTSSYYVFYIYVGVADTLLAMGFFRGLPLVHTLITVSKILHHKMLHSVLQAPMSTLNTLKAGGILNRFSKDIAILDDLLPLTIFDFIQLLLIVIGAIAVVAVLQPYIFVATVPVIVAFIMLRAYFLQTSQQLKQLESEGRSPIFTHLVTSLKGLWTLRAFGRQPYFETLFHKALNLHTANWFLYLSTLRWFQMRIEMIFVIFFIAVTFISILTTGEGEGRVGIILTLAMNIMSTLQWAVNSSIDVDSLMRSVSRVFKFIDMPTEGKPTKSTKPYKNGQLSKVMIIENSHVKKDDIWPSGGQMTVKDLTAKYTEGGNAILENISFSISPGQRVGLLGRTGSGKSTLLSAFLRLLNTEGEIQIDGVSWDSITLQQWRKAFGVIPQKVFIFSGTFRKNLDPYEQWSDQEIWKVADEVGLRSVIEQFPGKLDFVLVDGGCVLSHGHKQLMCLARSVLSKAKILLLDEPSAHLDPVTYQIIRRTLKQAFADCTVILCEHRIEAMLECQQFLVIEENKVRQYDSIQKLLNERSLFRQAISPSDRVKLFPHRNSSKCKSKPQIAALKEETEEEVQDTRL

Row | SMILES | IC50 (VRAC [1]) | IC50 (ANO1) | block of CFTR (human CFTR) | block of ANO2 (human ANO2) | IC50 (VRAC [2])
1 | CC(C)Oc1ccc(C(c2c(O)c3ccccc3oc2=O)c2c(O)c3ccccc3oc2=O)cc1 [VI-112] | 1.4 µM | 0.8 µM | – | – | –
2 | O=c1oc2ccccc2c(O)c1C(c1ccc(O)c(O)c1)c1c(O)c2ccccc2oc1=O [VI-115] | 47.9 µM | 61.6 µM | – | – | –
3 | O=C(O)c1ccc(/C=C2\SC(=S)N(c3cccc(C(F)(F)F)c3)C2=O)cc1 [CFTRinh−172] | – | – | completely blocked | – | –
4 | O=c1oc2ccccc2c(O)c1C(c1cc2c(cc1[N+](=O)[O-])OCO2)c1c(O)c2ccccc2oc1=O [VI-114] | 10.6 µM | 20.3 µM | – | – | –
5 | O=c1oc2ccccc2c(O)c1C(c1cc([N+](=O)[O-])ccc1Cl)c1c(O)c2ccccc2oc1=O [VI-101] | 3.3 µM | 3.2 µM | – | – | –
6 | O=c1oc2ccccc2c(O)c1C(c1cc([N+](=O)[O-])c(Cl)cc1Cl)c1c(O)c2ccccc2oc1=O [VI-103] | 3.3 µM | 3.2 µM | – | – | –
7 | O=c1oc2ccccc2c(O)c1C(c1ccc2c(c1)OCO2)c1c(O)c2ccccc2oc1=O [VI-113] | 1.9 µM | 3.9 µM | – | – | –
8 | O=c1oc2ccccc2c(O)c1C(c1cc([N+](=O)[O-])cc([N+](=O)[O-])c1Cl)c1c(O)c2ccccc2oc1=O [VI-104] | 30 µM | 37.9 µM | – | – | –
9 | CCOc1cc(C(c2c(O)c3ccccc3oc2=O)c2c(O)c3ccccc3oc2=O)ccc1O [VI-117] | 6.8 µM | 14.2 µM | – | – | –
10 | O=c1oc2ccccc2c(O)c1C(c1ccc(Cl)c([N+](=O)[O-])c1)c1c(O)c2ccccc2oc1=O [VI-102] | 0.8 µM | 3 µM | – | – | –
11 | CCOc1ccc(C(c2c(O)c3ccccc3oc2=O)c2c(O)c3ccccc3oc2=O)cc1OC [VI-119] | 12 µM | 4.9 µM | – | – | –
12 | COc1cc(OC)cc(C(c2c(O)c3ccccc3oc2=O)c2c(O)c3ccccc3oc2=O)c1 [VI-120] | 9.3 µM | 3.9 µM | – | – | –
13 | O=c1oc2ccccc2c(O)c1C(c1ccncc1)c1c(O)c2ccccc2oc1=O [VI-108] | 17 µM | 34.7 µM | – | – | –
14 | CCN(CC)c1ccc(C(c2c(O)c3ccccc3oc2=O)c2c(O)c3ccccc3oc2=O)cc1 [VI-111] | 2.9 µM | 3.2 µM | – | – | –
15 | O=c1oc2ccccc2c(O)c1C(c1ccccc1Cl)c1c(O)c2ccccc2oc1=O [VI-109] | 0.9 µM | 2 µM | – | – | –
16 | COc1ccc(C(c2c(O)c3ccccc3oc2=O)c2c(O)c3ccccc3oc2=O)cc1OC [VI-118] | 4 µM | 14.2 µM | – | – | –
17 | O=c1oc2ccccc2c(O)c1C(c1ccccc1F)c1c(O)c2ccccc2oc1=O [VI-110] | 0.58 µM and 0.6 µM | 4.8 µM | – | – | –
18 | O=c1oc2ccccc2c(O)c1C(c1cccc([N+](=O)[O-])c1)c1c(O)c2ccccc2oc1=O [VI-105] | 4.9 µM | 3.8 µM | – | – | –
19 | CN(C)c1ccc(C(c2c(O)c3ccccc3oc2=O)c2c(O)c3ccccc3oc2=O)cc1[N+](=O)[O-] [VI-106] | 1.3 µM | 3.6 µM | – | – | –
20 | CCc1c(C)nc(SCC(=O)Nc2nc(-c3ccc(OC)cc3)cs2)[nH]c1=O [T16Ainh-A01, reference compound] | – | – | – | completely blocked | –
21 | O=c1oc2ccccc2c(O)c1C(c1ccccc1)c1c(O)c2ccccc2oc1=O [VI-107] | – | 95.2 µM | – | – | 103 µM
